From ChEMBL document CHEMBL1201862, “PubChem BioAssay data set” (2004)
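Step 1: Grow cells in 96-well plates. Step 2: Expose to compound for 48 hours at 5 concentrations. Step 3: Interpolate endpoints linearly; if unreached, use highest concentration. GI50 is the concentration that inhibits growth by half.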 The source made the active and inactive calls. Cut-off read from the data, not from the text of the source: active = GI50 up to about 1.1 µM and inactive = higher.

What was measured:
Experiment in all cases: NCI anticancer screen, dose series, 48 h
[1] = system: UO-31
[2] = system: SF-539
[3] = system: SNB-19
[4] = system: UACC-257
[5] = system: SF-295
[6] = system: SR
[7] = system: 786-0
[8] = system: KM12
[9] = system: A549
[10] = system: HCT-116
[11] = system: U-251
[12] = system: IGROV-1
[13] = system: Malme-3M
[14] = system: LOX IMVI
[15] = system: HOP-92
[16] = system: NCI-H460
[17] = system: M14
[18] = system: A498
[19] = system: PC-3
[20] = system: SK-MEL-2
[21] = system: UACC-62
[22] = system: CCRF-CEM
[23] = system: K562
[24] = system: DU-145
[25] = system: OVCAR-8
[26] = system: HT-29
[27] = system: BT-549
[28] = system: MOLT-4
[29] = system: T47D
[30] = system: OVCAR-3
[31] = system: SN12C
[32] = system: OVCAR-5
[33] = system: SW-620
[34] = system: SK-OV-3
[35] = system: SK-MEL-5
[36] = system: HCT-15
[37] = system: EKVX
[38] = system: MDA-MB-231
[39] = system: MDA-N
[40] = system: NCI-H522
[41] = system: NCI-H226
[42] = system: HL-60
[43] = system: MCF7
[44] = system: RPMI-8226
[45] = system: SF-268
[46] = system: NCI-H23
[47] = system: ACHN
[48] = system: COLO 205
[49] = system: SK-MEL-28
[50] = system: NCI/ADR-RES
[51] = system: MDA-MB-435
[52] = system: TK-10
[53] = system: RXF 393
[54] = system: Hs-578T
[55] = system: SNB-75
[56] = system: CAKI-1
[57] = system: HOP-62
[58] = system: OVCAR-4
[59] = system: HCC 2998

CO[C@@H](c1ccccc1)[C@H](O)[C@@](O)(c1ccccc1)P(=O)(OC)OC
GI50 [1]: > 100 µM (inactive)
GI50 [2]: > 100 µM (inactive)
GI50 [3]: > 100 µM (inactive)
GI50 [4]: > 100 µM (inactive)
GI50 [5]: > 100 µM (inactive)
GI50 [6]: > 100 µM (inactive)
GI50 [7]: > 100 µM (inactive)
GI50 [8]: 28.4 µM (inactive)
GI50 [9]: > 100 µM (inactive)
GI50 [10]: > 100 µM (inactive)
GI50 [11]: > 100 µM (inactive)
GI50 [12]: 48.2 µM (inactive)
GI50 [13]: 36.6 µM (inactive)
GI50 [14]: > 100 µM (inactive)
GI50 [15]: 29.8 µM (inactive)
GI50 [16]: > 100 µM (inactive)
GI50 [17]: > 100 µM (inactive)
GI50 [18]: > 100 µM (inactive)
GI50 [19]: > 100 µM (inactive)
GI50 [20]: > 100 µM (inactive)
GI50 [21]: > 100 µM (inactive)
GI50 [22]: > 100 µM (inactive)
GI50 [23]: > 100 µM (inactive)
GI50 [24]: > 100 µM (inactive)
GI50 [25]: > 100 µM (inactive)
GI50 [26]: > 100 µM (inactive)
GI50 [27]: > 100 µM (inactive)
GI50 [28]: > 100 µM (inactive)
GI50 [29]: > 100 µM (inactive)
GI50 [30]: > 100 µM (inactive)
GI50 [31]: > 100 µM (inactive)
GI50 [32]: > 100 µM (inactive)
GI50 [33]: > 100 µM (inactive)
GI50 [34]: > 100 µM (inactive)
GI50 [35]: > 100 µM (inactive)
GI50 [36]: > 100 µM
GI50 [37]: > 100 µM (inactive)
GI50 [38]: > 100 µM (inactive)
GI50 [39]: > 100 µM (inactive)
GI50 [40]: 78.9 µM (inactive)
GI50 [41]: > 100 µM (inactive)
GI50 [42]: > 100 µM (inactive)
GI50 [43]: > 100 µM (inactive)
GI50 [44]: > 100 µM (inactive)
GI50 [45]: > 100 µM (inactive)
GI50 [46]: > 100 µM (inactive)
GI50 [47]: > 100 µM (inactive)
GI50 [48]: > 100 µM (inactive)
GI50 [49]: > 100 µM (inactive)
GI50 [50]: > 100 µM (inactive)
GI50 [51]: 44.4 µM (inactive)
GI50 [52]: > 100 µM (inactive)
GI50 [53]: > 100 µM (inactive)
GI50 [54]: > 100 µM (inactive)
GI50 [55]: > 100 µM (inactive)
GI50 [56]: 34.7 µM (inactive)

COc1cc(C=C(c2ccc(N(C)C)cc2)c2ccc(N(C)C)cc2)c2ccccc2c1OC
GI50 [1]: > 100 µM (inactive)
GI50 [3]: > 100 µM (inactive)
GI50 [4]: 76.7 µM (inactive)
GI50 [5]: 30.3 µM (inactive)
GI50 [6]: 22.3 µM (inactive)
GI50 [7]: > 100 µM (inactive)
GI50 [8]: 38.4 µM (inactive)
GI50 [9]: > 100 µM (inactive)
GI50 [10]: 35.1 µM (inactive)
GI50 [11]: 54 µM (inactive)
GI50 [12]: > 100 µM (inactive)
GI50 [13]: 70.8 µM (inactive)
GI50 [14]: 64.9 µM (inactive)
GI50 [15]: > 100 µM (inactive)
GI50 [16]: 96.2 µM (inactive)
GI50 [17]: 63.1 µM (inactive)
GI50 [57]: 64 µM (inactive)
GI50 [19]: 41.6 µM (inactive)
GI50 [20]: 33.9 µM (inactive)
GI50 [58]: 70.3 µM (inactive)
GI50 [21]: 27.4 µM (inactive)
GI50 [22]: 18.6 µM (inactive)
GI50 [23]: 17.5 µM (inactive)
GI50 [24]: > 100 µM (inactive)
GI50 [25]: > 100 µM (inactive)
GI50 [26]: 19 µM (inactive)
GI50 [27]: 35.2 µM (inactive)
GI50 [28]: > 100 µM (inactive)
GI50 [29]: > 100 µM (inactive)
GI50 [30]: 27.2 µM (inactive)
GI50 [31]: > 100 µM (inactive)
GI50 [32]: > 100 µM (inactive)
GI50 [34]: > 100 µM (inactive)
GI50 [35]: 51.9 µM (inactive)
GI50 [36]: 40.4 µM
GI50 [37]: > 100 µM (inactive)
GI50 [38]: > 100 µM (inactive)
GI50 [39]: 16.2 µM (inactive)
GI50 [40]: 25.4 µM (inactive)
GI50 [41]: 41 µM (inactive)
GI50 [42]: 9.29 µM (inactive)
GI50 [43]: 26.2 µM (inactive)
GI50 [44]: 45.8 µM (inactive)
GI50 [45]: > 100 µM (inactive)
GI50 [46]: > 100 µM (inactive)
GI50 [47]: 49.4 µM (inactive)
GI50 [59]: 87.7 µM (inactive)
GI50 [48]: 55.7 µM (inactive)
GI50 [49]: 93.8 µM (inactive)
GI50 [50]: 23.4 µM (inactive)
GI50 [51]: 22.3 µM (inactive)
GI50 [52]: > 100 µM (inactive)
GI50 [53]: > 100 µM (inactive)
GI50 [54]: 43.2 µM (inactive)
GI50 [55]: 36.3 µM (inactive)
GI50 [56]: > 100 µM (inactive)
